Experiments:
Type in all cases: cell-based, human
[1] = system: reporter hESC line, MIXL1GFP/wt; assay: Posterior primitive streak induction from MIXL1-GFP reporter hESC (FACS, qRT-PCR)
Procedure: HES3 (MIXL1^GFP/wt) cells were routinely cultured on irradiated MEF feeder cells in F12/DMEM (Life Technologies) supplemented with 20% KnockOut serum replacement (Life Technologies), 100 μM MEM NEAA (Life Technologies), 110 μM 2-mercaptoethanol (Life Technologies), 1×penicillin/streptomycin (Life Technologies), 1× Glutamax (Life Technologies) and 10 ng/mL bFGF (R&D systems). The day before starting differentiation, cells were plated at 12,000-15,000 cells/cm^2 on a Matrigel coated 96-well plate. After overnight culture, cells were exposed to 30 ng/mL BMP4 (R&D systems) and 10 ng/mL Activin A (R&D systems) or 8 μM CHIR99021 in a previously established serum free media APEL for 2-3 days, then 200 ng/mL FGF9 and 1 μg/mL Heparin in APEL media for 4 days to induce IM cells. Subsequently cells were exposed to 200 ng/mL FGF9, 50 ng/mL BMP7, 0.1 μM RA and 1 μg/mL Heparin for 4-11 days in case of BMP4/Activin A induction. In case of CHIR99021 induction, cells were exposed to 200 ng/mL FGF9 and 1 μg/mL Heparin for 6 days then cultured in APEL basal media for another 6 days. […]
(§1) Total RNA was extracted from cells using RNeasy micro kit (QIAGEN) and cDNA was synthesized from >100 ng RNA using Super Script III reverse transcriptase (Life Technologies). Quantitive RT-PCR (qRT-PCR) analyses were performed with Syber Green (Applied Biosystems) by ABI PRISM 7500 real-time PCR machine. […]

hESC-derived IM cells = assay: Differentiation of IM to ureteric epithelium and metanephric mesenchyme/nephron progenitors (IF, PCR); settings: for production of mesenchyme (HOXD11, SIX2, SIX1, WT1, EYA1 expression): CHIR99021 at 1 μM through Stage 2 and 3 and RA antagonist added
Procedure: (§2) HES3 (MIXL1^GFP/wt) cells were routinely cultured on irradiated MEF feeder cells in F12/DMEM (Life Technologies) supplemented with 20% KnockOut serum replacement (Life Technologies), 100 μM MEM NEAA (Life Technologies), 110 μM 2-mercaptoethanol (Life Technologies), 1×penicillin/streptomycin (Life Technologies), 1× Glutamax (Life Technologies) and 10 ng/mL bFGF (R&D systems). The day before starting differentiation, cells were plated at 12,000-15,000 cells/cm^2 on a Matrigel coated 96-well plate. After overnight culture, cells were exposed to 30 ng/mL BMP4 (R&D systems) and 10 ng/mL Activin A (R&D systems) or 8 μM CHIR99021 in a previously established serum free media APEL for 2-3 days, then 200 ng/mL FGF9 and 1 μg/mL Heparin in APEL media for 4 days to induce IM cells. Subsequently cells were exposed to 200 ng/mL FGF9, 50 ng/mL BMP7, 0.1 μM RA and 1 μg/mL Heparin for 4-11 days in case of BMP4/Activin A induction. In case of CHIR99021 induction, cells were exposed to 200 ng/mL FGF9 and 1 μg/mL Heparin for 6 days then cultured in APEL basal media for another 6 days. Media was changed every 2 days.
Cells were fixed with 4% Paraformaldehyde in PBS for 10 min at 4° C. followed by a wash with PBS. Then cells were blocked with 1% BSA, 0.2% milk, 0.3% Triton X/PBS for 1 hr at RT and incubated with primary antibodies overnight at 4° C.
Secondary antibodies were incubated for 1 hr at RT. The following antibodies and dilutions were used: rabbit anti-PAX2 (1:200, #71-6000, Zymed Laboratories Inc.), goat anti-OSR1 (1:75, #sc-67723, Santa Cruz Biotechnology), goat anti-LHX1 (1:75, #sc-19341, Santa Cruz Biotechnology), mouse anti-TBX6 (1:200, AF4744, R&D systems), goat anti-SOX17 (1:200, #AF1924, R&D systems), rabbit anti-SIX2 (1:200, #11562-1-AP, Proteintech), mouse anti-ECAD (1:200, #610181, BD Biosciences), rabbit anti-WT1 (1:100, #sc-192, Santa Cruz Biotechnology), mouse anti-HOXD11 (1:200, #SAB1403944, Sigma-Aldrich), goat anti-GATA3 (1:200, AF2605, R&D systems), rabbit anti-JAG1 (1:200, #ab7771, Abcam), rabbit anti-CDH6 (1:100, #HPA007047, Sigma Aldrich) and goat anti-SYNPO (1:200, #sc-21537, Santa Cruz Biotechnology). Secondary antibodies were: Alexa-488-conjugated goat anti-rabbit, Alexa-594-conjugated donkey anti-rabbit, Alexa-488-conjugated donkey anti-goat and Alexa-594-conjugated goat anti-mouse (1:250, Life Technologies). Images were taken using Nikon Ti—U microscope or Zeiss LSM 510 Meta UV confocal microscope. […]
as §1

[2] = system: hESC-induced posterior primitive streak; assay: Intermediate mesoderm (IM) induction from hESC-induced posterior primitive streak (IF, qRT-PCR)
Procedure: as §2
Cells were fixed with 4% Paraformaldehyde in PBS for 10 min at 4° C. followed by a wash with PBS. […]
as §1
To quantify the proportion of differentiated cells positive for PAX2^+, LHX1^+, SOX17^+, SIX2^+ or WT1^+, cells were immunofluorescently stained with each antibody together with the nuclear stain, DAPI. The ratio of differentiated cells to total cells was manually counted using Image J in 1 or 2 representative fields per experiment (total 3-5 representative fields from 3 independent experiments, 1-1.5×10^3 cells in total), using an Olympus BX-51 microscope, 10× objective.

Question: Which results are given for `Cc1c[nH]c(-c2cnc(NCCNc3ccc(C#N)cn3)nc2-c2ccc(Cl)cc2Cl)n1` [CHIR99021]?
Answer: concentration optimal for posterior primitive streak ([1]; comparative expression of MIXL1, T, SOX17, 5, 7, 9 μM tested): > 7 µM; cells became GFP+ (MIXL1-GFP positive posterior primitive streak cells) ([1]; high BMP4/low Activin A (30/10 ng/mL) or high CHIR99021, 3 days culture, FACS): approximately 90%; production of mesenchyme (HOXD11, SIX2, SIX1, WT1, EYA1 expression) (hESC-derived IM cells): improved; Stage 1 concentration giving optimal ratio of epithelium to nephron progenitors (hESC-derived IM cells; first 2 days in culture, cultured out to day 18, 6 μM better than 8 μM): 6 µM

Question: `CCN(CC)CCCCNc1ncc2cc(-c3cc(OC)cc(OC)c3)c(NC(=O)NC(C)(C)C)nc2n1` [PD173074] was tested. Which “PAX2 and LHX1 induction in response to FGF2 or FGF9” value ([2]; day 6, FGF 200 ng/ml day 2 to 6) did it give?
Answer: The value was “dramatically inhibited”.

Question: For `Cc1ccc(C2=CCC(C)(C)c3ccc(C#Cc4ccc(C(=O)O)cc4)cc32)cc1` [AGN193109], which “production of mesenchyme (HOXD11, SIX2, SIX1, WT1, EYA1 expression)” value (hESC-derived IM cells) is on record?
Answer: Its value is “improved”.

B1: BMP7: bone morphogenic protein 7 (protein, UniProt P18075 293-431, looked up)
Bone morphogenetic protein 7: STGSKQRSQNRSKTPKNQEALRMANVAENSSSDQRQACKKHELYVSFRDLGWQDWIIAPEGYAAYYCEGECAFPLNSYMNATNHAIVQTLVHFINPETVPKPCCAPTQLNAISVLYFDDSSNVILKKYRNMVVRACGCH
Question: For B1, which effect on mesenchyme (hESC-derived IM cells; BMP7 together with FGF9 in Stage 3) is on record?
Answer: Its effect on mesenchyme is “slightly improves the mesenchyme”.

B2: NOG: BMP antagonist NOG (noggin) (protein, UniProt Q13253 28-232, looked up)
Noggin: QHYLHIRPAPSDNLPLVDLIEHPDPIFDPKEKDLNETLLRSLLGGHYDPGFMATSPPEDRPGGGGGAAGGAEDLAELDQLLRQRPSGAMPSEIKGLEFSEGLAQGKKQRLSKKLRRKLQMWLWSQTFCPVLYAWNDLGSRFWPRYVKVGSCFSKRSCSVPEGMVCKPSKSVHLTVLRWRCQRRGGQRCGWIPIQYPIISECKCSC
Question: How did the “FOXF1 (LPM marker) expression” value ([2]; NOG together with FGF9 from day 2 to 6, qRT-PCR day 6) turn out when B2 was run?
Answer: Its value is “effectively suppressed”.

B3: FGF8: FGF family member (protein, UniProt P55075 23-233, looked up)
Fibroblast growth factor 8: QEGPGRGPALGRELASLFRAGREPQGVSQQHVREQSLVTDQLSRRLIRTYQLYSRTSGKHVQVLANKRINAMAEDGDPFAKLIVETDTFGSRVRVRGAETGLYICMNKKGKLIAKSNGKGKDCVFTEIVLENNYTALQNAKYEGWYMAFTRKGRPRKGSKTRQHQREVHFMKRLPRGHHTTEQSLRFEFLNYPPFTRSLRGSQRTWAPEPR
Question: B3 was tested. Which “coexpression of OSR1, PAX2 and LHX1 (IM induction)” value ([2]; 200 ng/mL FGF for 4 days) did it give?
Answer: Its value is “not”.

— patent publication US20240344034A1, “Renal Progenitor Cells” (The University of Queensland, priority 2013, published 2024)
